Laboratory results: ChEMBL document CHEMBL2062504, “Diterpenoid alkaloids from the lateral root of Aconitum carmichaelii” (J Nat Prod, 2012)
Active and inactive are the calls of the source.

How the values were obtained:
[1] = tested on: BGC-823; experiment: Cytotoxicity against human BGC823 cells at 10 uM after 96 hrs by MTT assay; assay type: functional, cell-based
[2] = tested on: Liver microsomes; experiment: Antioxidant activity in rat liver microsome assessed as inhibition of FeSO4-induced lipid peroxidation at 10 uM incubated for 15 mins prior to FeSO4-challenge measured after 15 mins by modified thiobarbituric acid method; assay type: functional
[3] = tested on: HCT-8; experiment: Cytotoxicity against human HCT8 cells at 10 uM after 96 hrs by MTT assay; assay type: functional, cell-based
[4] = tested on: MCF7; experiment: Cytotoxicity against human MCF7 cells at 10 uM after 96 hrs by MTT assay; assay type: functional, cell-based
[5] = tested on: Bel-7402; experiment: Cytotoxicity against human Bel7402 cells at 10 uM after 96 hrs by MTT assay; assay type: functional, cell-based
[6] = tested on: KETR3; experiment: Cytotoxicity against human Ketr3 cells at 10 uM after 96 hrs by MTT assay; assay type: functional, cell-based
[7] = tested on: A549; experiment: Cytotoxicity against human A549 cells at 10 uM after 96 hrs by MTT assay; assay type: functional, cell-based
[8] = tested on: WB-F344; experiment: Hepatoprotective activity against DL-galactosamine-induced cell death in rat WB-F344 cells at 10 uM incubated for 1 hr prior to DL-galactosamine-challenge measured after 24 hrs by MTT assay; assay type: functional, cell-based
[9] = tested on: Peritoneal macrophage cell; experiment: Antiinflammatory activity in mouse peritoneal macrophages assessed as inhibition of nitric oxide production at 10 uM; assay type: functional, cell-based

CCN1C[C@]2(COC)[C@H](O)C[C@H](OC)[C@]34C1[C@H]([C@H](OC)[C@H]23)[C@]1(OC)[C@H]2[C@@H](OC(=O)c3ccccc3)[C@](O)(C[C@]24O)[C@@H](OC)[C@@H]1O
inactive: Activity [1] | inhibition [2] | Activity [3] | Activity [4] | Activity [5] | Activity [6] | Activity [7] | Activity [8] | inhibition [9]

CCO[C@]12[C@H]3[C@@H](OC(=O)c4ccccc4)[C@H](C[C@H]3[C@@]34C5[C@@H]1[C@H](O)[C@@H]3[C@@](COC)(CC[C@@H]4OC)CN5CC)[C@@H](OC)[C@@H]2O
inactive: Activity [1] | inhibition [2] | Activity [3] | Activity [4] | Activity [5] | Activity [6] | Activity [7] | Activity [8] | inhibition [9]

CCN1C[C@]2(COC)CC[C@H](OC)[C@]34C1[C@H]([C@H](O)[C@H]23)[C@]1(O)[C@H]2[C@@H](OC(=O)c3ccccc3)[C@H](C[C@H]24)[C@@H](OC)[C@@H]1O
inactive: Activity [1] | inhibition [2] | Activity [3] | Activity [4] | Activity [5] | Activity [6] | Activity [7] | Activity [8] | inhibition [9]

CCN1C[C@]2(COC)CC[C@H](OC)[C@]34C1[C@H]([C@H](OC)[C@H]23)[C@]1(OC(C)=O)[C@H]2[C@@H](OC(=O)c3ccccc3)[C@H](C[C@H]24)[C@@H](OC)[C@@H]1O
inactive: Activity [1] | inhibition [2] | Activity [3] | Activity [4] | Activity [5] | Activity [6] | Activity [7] | Activity [8] | inhibition [9]

COC[C@@]12CC[C@H](OC)[C@]34C([C@H]([C@H](OC)[C@H]13)[C@]1(OC(C)=O)[C@H]3[C@@H](OC(=O)c5ccccc5)[C@](O)(C[C@]34O)[C@@H](OC)[C@@H]1O)N(C)C2
inactive: Activity [1] | inhibition [2] | Activity [3] | Activity [4] | Activity [5] | Activity [6] | Activity [7] | Activity [8] | inhibition [9]

CCN1C[C@]2(COC)CC[C@H](OC)[C@]34C1[C@H]([C@H](OC)[C@H]23)[C@]1(OC)[C@H]2[C@@H](OC(=O)c3ccccc3)[C@](O)(C[C@H]24)[C@@H](OC)[C@@H]1O (single isomer, unassigned; (-))
inactive: Activity [1] | inhibition [2] | Activity [3] | Activity [4] | Activity [5] | Activity [6] | Activity [7] | Activity [8] | inhibition [9]

COC[C@]12CN(C)C3[C@@H]4[C@H](OC)[C@H]1[C@@]3([C@@H](OC)C[C@H]2O)[C@]1(O)C[C@@]2(O)[C@H](OC(=O)c3ccccc3)[C@@H]1[C@]4(O)[C@@H](O)[C@@H]2OC
inactive: Activity [1] | inhibition [2] | Activity [3] | Activity [4] | Activity [5] | Activity [6] | Activity [7] | Activity [8] | inhibition [9]

CCN1C[C@]2(COC)CC[C@H](O)[C@]34C1[C@H](C[C@H]23)[C@]1(O)[C@H]2[C@@H](OC(=O)c3ccccc3)[C@H](C[C@H]24)[C@@H](OC)[C@@H]1O
inactive: Activity [1] | inhibition [2] | Activity [3] | Activity [4] | Activity [5] | Activity [6] | Activity [7] | Activity [8] | inhibition [9]

COC[C@]12CN(C)C3[C@@H]4[C@H](OC)[C@H]1[C@@]3([C@@H](OC)C[C@H]2O)[C@@H]1C[C@@]2(O)[C@H](OC(=O)c3ccccc3)[C@@H]1[C@]4(O)[C@@H](OC(C)=O)[C@@H]2OC
inactive: Activity [1] | inhibition [2] | Activity [3] | Activity [4] | Activity [5] | Activity [6] | Activity [7] | Activity [8] | inhibition [9]

COC[C@]12CN(C)C3[C@@H]4[C@H](OC)[C@H]1[C@@]3([C@@H](OC)C[C@H]2O)[C@@H]1C[C@@]2(O)[C@H](OC(=O)c3ccccc3)[C@@H]1[C@]4(O)[C@@H](O)[C@@H]2OC
inactive: Activity [1] | inhibition [2] | Activity [3] | Activity [4] | Activity [5] | Activity [6] | Activity [7] | Activity [8] | inhibition [9]

CCN1C[C@]2(COC)CC[C@H](O)[C@]34C1[C@H]([C@H](OC)[C@H]23)[C@]1(O)[C@H]2[C@@H](OC(=O)c3ccccc3)[C@H](C[C@H]24)[C@@H](OC)[C@@H]1O
inactive: Activity [1] | inhibition [2] | Activity [3] | Activity [4] | Activity [5] | Activity [6] | Activity [7] | Activity [8] | inhibition [9]

COC[C@]12CN(C)C3[C@@H]4[C@H](OC)[C@H]1[C@@]3([C@@H](OC)C[C@H]2O)[C@]1(O)C[C@@]2(O)[C@H](OC(=O)c3ccccc3)[C@@H]1[C@]4(OC)[C@@H](O)[C@@H]2OC (stereo in doubt; 8)
inactive: Activity [1] | inhibition [2] | Activity [3] | Activity [4] | Activity [5] | Activity [6] | Activity [7] | Activity [8] | inhibition [9]

CCN1C[C@]2(COC)CC[C@H](OC)[C@]34C1[C@H]([C@H](OC)[C@H]23)[C@@]1(O)C[C@H](OC)[C@@]2(O)C[C@@H]4[C@@H]1[C@H]2OC(=O)c1ccccc1
inactive: Activity [1] | inhibition [2] | Activity [3] | Activity [4] | Activity [5] | Activity [6] | Activity [7] | Activity [8] | inhibition [9]

COC[C@]12CN(C)C3[C@@H]4[C@H](OC)[C@H]1[C@@]3([C@@H](OC)C[C@H]2O)[C@]1(O)C[C@@]2(O)[C@H](OC(=O)c3ccccc3)[C@@H]1[C@]4(OC)[C@@H](O)[C@@H]2OC (stereo in doubt; 7)
inactive: Activity [1] | inhibition [2] | Activity [3] | Activity [4] | Activity [5] | Activity [6] | Activity [7] | Activity [8] | inhibition [9]

COC[C@]12CN(C)C3[C@@H]4[C@H](OC)[C@H]1[C@@]3([C@@H](OC)C[C@H]2OC(C)=O)[C@]1(O)C[C@@]2(O)[C@H](OC(=O)c3ccccc3)[C@@H]1[C@]4(OC)[C@@H](O)[C@@H]2OC
inactive: Activity [1] | inhibition [2] | Activity [3] | Activity [4] | Activity [5] | Activity [6] | Activity [7] | Activity [8] | inhibition [9]
